# Measured values as given in PubChem BioAssay (NCI).
#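 Growth conditions: 96-well plates. Treatment: test compound, 48 hours, 5 concentrations. Analysis: linear interpolation between bracketing concentrations; unreached endpoints set to highest concentration. TGI is the concentration that stops growth completely.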
# How the values were obtained:
# Experiment in all cases: NCI anticancer screen, dose series, 48 h
# SK-MEL-28 melanoma = test system: SK-MEL-28 melanoma
# NCI-H460 lung = test system: NCI-H460 lung
# OVCAR-4 ovarian = test system: OVCAR-4 ovarian
# SN12C renal = test system: SN12C renal
# CCRF-CEM leukemia = test system: CCRF-CEM leukemia
# UO-31 renal = test system: UO-31 renal
# A498 renal = test system: A498 renal
# DU-145 prostate = test system: DU-145 prostate
# BT-549 breast = test system: BT-549 breast
# HCC-2998 colon = test system: HCC-2998 colon
# IGROV1 ovarian = test system: IGROV1 ovarian
# UACC-62 melanoma = test system: UACC-62 melanoma
# UACC-257 melanoma = test system: UACC-257 melanoma
# MDA-MB-435 = test system: MDA-MB-435
# HL-60(TB) leukemia = test system: HL-60(TB) leukemia
# OVCAR-8 ovarian = test system: OVCAR-8 ovarian
# MALME-3M melanoma = test system: MALME-3M melanoma
# SNB-75 CNS = test system: SNB-75 CNS
# HCT-15 colon = test system: HCT-15 colon
# NCI-H226 lung = test system: NCI-H226 lung
# COLO 205 colon = test system: COLO 205 colon
# LOX IMVI melanoma = test system: LOX IMVI melanoma
# PC-3 prostate = test system: PC-3 prostate
# SR leukemia = test system: SR leukemia
# CAKI-1 renal = test system: CAKI-1 renal
# OVCAR-3 ovarian = test system: OVCAR-3 ovarian
# SK-MEL-2 melanoma = test system: SK-MEL-2 melanoma
# SW-620 colon = test system: SW-620 colon
# SK-MEL-5 melanoma = test system: SK-MEL-5 melanoma
# A549 NSCLC = test system: A549 NSCLC
# HOP-62 NSCLC = test system: HOP-62 NSCLC
# NCI-H23 lung = test system: NCI-H23 lung
# TK-10 renal = test system: TK-10 renal
# MOLT-4 leukemia = test system: MOLT-4 leukemia
# T-47D breast = test system: T-47D breast
# EKVX NSCLC = test system: EKVX NSCLC
# NCI/ADR-RES ovarian = test system: NCI/ADR-RES ovarian
# MDA-MB-231 breast = test system: MDA-MB-231 breast
# HT29 colon = test system: HT29 colon
# 786-0 renal = test system: 786-0 renal
# HOP-92 NSCLC = test system: HOP-92 NSCLC
# MDA-N = test system: MDA-N
# ACHN renal = test system: ACHN renal
# SNB-19 CNS = test system: SNB-19 CNS
# K-562 leukemia = test system: K-562 leukemia
# HCT-116 colon = test system: HCT-116 colon
# OVCAR-5 ovarian = test system: OVCAR-5 ovarian
# KM12 colon = test system: KM12 colon
# M14 melanoma = test system: M14 melanoma
# U251 CNS = test system: U251 CNS
# HS 578T breast = test system: HS 578T breast
# MCF7 breast = test system: MCF7 breast
# SF-268 CNS = test system: SF-268 CNS
# SK-OV-3 ovarian = test system: SK-OV-3 ovarian
# NCI-H522 lung = test system: NCI-H522 lung
# SF-295 CNS = test system: SF-295 CNS
# SF-539 CNS = test system: SF-539 CNS
# RPMI-8226 leukemia = test system: RPMI-8226 leukemia
smiles,measurement,setting,value
COc1ccc(CCCNC(=O)Cc2ccccc2CO)cc1OC,TGI,SK-MEL-28 melanoma,> 100 µM
same,TGI,NCI-H460 lung,> 100 µM
same,TGI,OVCAR-4 ovarian,> 100 µM
same,TGI,SN12C renal,> 100 µM
same,TGI,CCRF-CEM leukemia,> 100 µM
same,TGI,UO-31 renal,> 100 µM
same,TGI,A498 renal,> 100 µM
same,TGI,DU-145 prostate,> 100 µM
same,TGI,BT-549 breast,> 100 µM
same,TGI,HCC-2998 colon,> 100 µM
same,TGI,IGROV1 ovarian,> 100 µM
same,TGI,UACC-62 melanoma,> 100 µM
same,TGI,UACC-257 melanoma,> 100 µM
same,TGI,MDA-MB-435,> 100 µM
same,TGI,HL-60(TB) leukemia,> 100 µM
same,TGI,OVCAR-8 ovarian,> 100 µM
same,TGI,MALME-3M melanoma,> 100 µM
same,TGI,SNB-75 CNS,> 100 µM
same,TGI,HCT-15 colon,> 100 µM
same,TGI,NCI-H226 lung,> 100 µM
same,TGI,COLO 205 colon,> 100 µM
same,TGI,LOX IMVI melanoma,> 100 µM
same,TGI,PC-3 prostate,> 100 µM
same,TGI,SR leukemia,> 100 µM
same,TGI,CAKI-1 renal,> 100 µM
same,TGI,OVCAR-3 ovarian,> 100 µM
same,TGI,SK-MEL-2 melanoma,> 100 µM
same,TGI,SW-620 colon,> 100 µM
same,TGI,SK-MEL-5 melanoma,> 100 µM
same,TGI,A549 NSCLC,> 100 µM
same,TGI,HOP-62 NSCLC,> 100 µM
same,TGI,NCI-H23 lung,> 100 µM
same,TGI,TK-10 renal,> 100 µM
same,TGI,MOLT-4 leukemia,> 100 µM
same,TGI,T-47D breast,> 100 µM
same,TGI,EKVX NSCLC,> 100 µM
same,TGI,NCI/ADR-RES ovarian,> 100 µM
same,TGI,MDA-MB-231 breast,> 100 µM
same,TGI,HT29 colon,> 100 µM
same,TGI,786-0 renal,> 100 µM
same,TGI,HOP-92 NSCLC,> 100 µM
same,TGI,MDA-N,> 100 µM
same,TGI,ACHN renal,> 100 µM
same,TGI,SNB-19 CNS,> 100 µM
same,TGI,K-562 leukemia,> 100 µM
same,TGI,HCT-116 colon,> 100 µM
same,TGI,OVCAR-5 ovarian,> 100 µM
same,TGI,KM12 colon,> 100 µM
same,TGI,M14 melanoma,> 100 µM
same,TGI,U251 CNS,> 100 µM
same,TGI,HS 578T breast,> 100 µM
CN(C)CCNC(=O)c1cccc(NC(=O)c2ccccc2)c1[N+](=O)[O-],TGI,SK-MEL-28 melanoma,> 100 µM
same,TGI,NCI-H460 lung,> 100 µM
same,TGI,SN12C renal,> 100 µM
same,TGI,CCRF-CEM leukemia,> 100 µM
same,TGI,UO-31 renal,> 100 µM
same,TGI,A498 renal,> 100 µM
same,TGI,BT-549 breast,> 100 µM
same,TGI,HCC-2998 colon,> 100 µM
same,TGI,IGROV1 ovarian,> 100 µM
same,TGI,UACC-62 melanoma,> 100 µM
same,TGI,UACC-257 melanoma,> 100 µM
same,TGI,MDA-MB-435,> 100 µM
same,TGI,HL-60(TB) leukemia,> 100 µM
same,TGI,OVCAR-8 ovarian,> 100 µM
same,TGI,MALME-3M melanoma,27.3 µM
same,TGI,MCF7 breast,> 100 µM
same,TGI,SNB-75 CNS,> 100 µM
same,TGI,HCT-15 colon,> 100 µM
same,TGI,NCI-H226 lung,> 100 µM
same,TGI,COLO 205 colon,> 100 µM
same,TGI,PC-3 prostate,> 100 µM
same,TGI,CAKI-1 renal,> 100 µM
same,TGI,OVCAR-3 ovarian,64.8 µM
same,TGI,SK-MEL-2 melanoma,> 100 µM
same,TGI,SF-268 CNS,> 100 µM
same,TGI,SW-620 colon,> 100 µM
same,TGI,SK-MEL-5 melanoma,> 100 µM
same,TGI,A549 NSCLC,> 100 µM
same,TGI,HOP-62 NSCLC,> 100 µM
same,TGI,NCI-H23 lung,> 100 µM
same,TGI,TK-10 renal,> 100 µM
same,TGI,MOLT-4 leukemia,> 100 µM
same,TGI,T-47D breast,> 100 µM
same,TGI,NCI/ADR-RES ovarian,> 100 µM
same,TGI,MDA-MB-231 breast,> 100 µM
same,TGI,SK-OV-3 ovarian,> 100 µM
same,TGI,HT29 colon,> 100 µM
same,TGI,786-0 renal,> 100 µM
same,TGI,MDA-N,> 100 µM
same,TGI,NCI-H522 lung,> 100 µM
same,TGI,ACHN renal,> 100 µM
same,TGI,SNB-19 CNS,> 100 µM
same,TGI,HCT-116 colon,> 100 µM
same,TGI,OVCAR-5 ovarian,> 100 µM
same,TGI,KM12 colon,> 100 µM
same,TGI,M14 melanoma,> 100 µM
same,TGI,SF-295 CNS,> 100 µM
same,TGI,U251 CNS,> 100 µM
same,TGI,HS 578T breast,> 100 µM
CCCCc1ccc(N2C(=O)c3cc([N+](=O)[O-])cnc3S2(=O)=O)cc1,TGI,SK-MEL-28 melanoma,> 100 µM
same,TGI,NCI-H460 lung,> 100 µM
same,TGI,OVCAR-4 ovarian,> 100 µM
same,TGI,SN12C renal,> 100 µM
same,TGI,UO-31 renal,> 100 µM
same,TGI,A498 renal,> 100 µM
same,TGI,BT-549 breast,> 100 µM
same,TGI,HCC-2998 colon,> 100 µM
same,TGI,IGROV1 ovarian,> 100 µM
same,TGI,UACC-62 melanoma,> 100 µM
same,TGI,UACC-257 melanoma,> 100 µM
same,TGI,MDA-MB-435,> 100 µM
same,TGI,OVCAR-8 ovarian,> 100 µM
same,TGI,MALME-3M melanoma,> 100 µM
same,TGI,MCF7 breast,> 100 µM
same,TGI,SNB-75 CNS,> 100 µM
same,TGI,HCT-15 colon,> 100 µM
same,TGI,NCI-H226 lung,> 100 µM
same,TGI,COLO 205 colon,> 100 µM
same,TGI,LOX IMVI melanoma,> 100 µM
same,TGI,PC-3 prostate,> 100 µM
same,TGI,SR leukemia,> 100 µM
same,TGI,CAKI-1 renal,> 100 µM
same,TGI,OVCAR-3 ovarian,> 100 µM
same,TGI,SK-MEL-2 melanoma,59 µM
same,TGI,SF-268 CNS,> 100 µM
same,TGI,SW-620 colon,> 100 µM
same,TGI,SK-MEL-5 melanoma,> 100 µM
same,TGI,A549 NSCLC,> 100 µM
same,TGI,HOP-62 NSCLC,> 100 µM
same,TGI,NCI-H23 lung,> 100 µM
same,TGI,TK-10 renal,> 100 µM
same,TGI,MOLT-4 leukemia,> 100 µM
same,TGI,T-47D breast,> 100 µM
same,TGI,EKVX NSCLC,> 100 µM
same,TGI,NCI/ADR-RES ovarian,> 100 µM
same,TGI,MDA-MB-231 breast,> 100 µM
same,TGI,SF-539 CNS,> 100 µM
same,TGI,SK-OV-3 ovarian,> 100 µM
same,TGI,HT29 colon,> 100 µM
same,TGI,786-0 renal,> 100 µM
same,TGI,HOP-92 NSCLC,8.03 µM
same,TGI,MDA-N,> 100 µM
same,TGI,ACHN renal,> 100 µM
same,TGI,SNB-19 CNS,> 100 µM
same,TGI,K-562 leukemia,> 100 µM
same,TGI,HCT-116 colon,> 100 µM
same,TGI,OVCAR-5 ovarian,> 100 µM
same,TGI,KM12 colon,> 100 µM
same,TGI,M14 melanoma,> 100 µM
same,TGI,SF-295 CNS,> 100 µM
same,TGI,U251 CNS,> 100 µM
same,TGI,HS 578T breast,> 100 µM
same,TGI,RPMI-8226 leukemia,> 100 µM
